# Measured values published in patent US20030170693A1, “Assay for identifying modulators of Borrelia telomere resolvase” (priority 2001, published 2003).
# Where two headings read alike, the source gives them in different places.
# What was measured:
# ResT = target: T1, ResT (Borreliella burgdorferi, UniProt O50979); test: In vitro telomere resolution by ResT (plasmid substrate, agarose gel); type: biochemical; conditions: for effect of peptide on in vitro ResT activity: peptide inhibitors of tyrosine recombinase or topoisomerase, FIG. 9; for inhibition of ResT: 2 mM, data not shown; for concentration at which complete inhibition of ResT activity was observed: pYT1 as the substrate, agarose gel, FIG. 8A
# T1 construct: made in house; host or cells: E. coli BL21 (lambda DE3) pLysS, strain BGC88 carrying pKK4
# T1 sequence (O50979 1-449): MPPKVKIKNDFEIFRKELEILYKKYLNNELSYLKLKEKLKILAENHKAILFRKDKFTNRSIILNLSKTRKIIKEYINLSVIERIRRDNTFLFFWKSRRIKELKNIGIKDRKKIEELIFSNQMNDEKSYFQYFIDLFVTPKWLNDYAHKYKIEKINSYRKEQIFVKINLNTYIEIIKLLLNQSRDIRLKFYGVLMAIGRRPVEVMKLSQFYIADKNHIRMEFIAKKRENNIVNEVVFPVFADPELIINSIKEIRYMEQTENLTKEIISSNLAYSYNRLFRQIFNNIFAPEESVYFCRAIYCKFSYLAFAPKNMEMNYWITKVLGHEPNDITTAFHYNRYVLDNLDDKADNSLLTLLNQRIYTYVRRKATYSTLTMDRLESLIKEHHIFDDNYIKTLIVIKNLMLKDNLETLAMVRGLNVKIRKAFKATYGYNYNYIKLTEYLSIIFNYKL
# Protocol: The activity of the purified recombinant protein (ResT) was assayed using plasmids previously established to be in vivo substrates for telomere resolution in B. burgdorferi (Chaconas et al., 2001). pGCL15-6 has a 70 bp replicated left-end telomere from the linear plasmid Ip17 (FIG. 1B). Typical reaction conditions, herein defined as 1× reaction are as follows: 25 mM Tris-HCl [pH 8.5], 100 mM NaCl, 1 mM EDTA, 5 mM spermidine, 100 μg/ml bovine serum albumin, 5 μg/ml substrate DNA and 2 μg/ml ResT. Reactions (typically 30 μl) were incubated at 30° C. for 30 min and terminated by addition of SDS to a final concentration of 0.5%. Spermidine contributes an approximate 3-fold stimulation to the reaction and was therefore omitted from the reactions used for cleavage site determination. Linearized and relaxed plasmid substrates were prepared in 10-20 μg batches by reaction with the specified restriction enzyme with the manufacturers buffers or with Shope Fibroma Virus topoisomerase I (gift of Dr. David Evans, University of Guelph), in ResT reaction buffer. These reactions were then extracted with phenol/chloroform, chloroform alone, and subsequently ethanol precipitated and resuspended in 25 mM Hepes-NaOH [pH 7.6], 0.1 mM EDTA.
# Reactions were performed containing increasing amounts of the topoisomerase inhibitors coumermycin A1 or novobiocin. The reactions were analyzed by agarose gel electrophoresis followed by staining with ethidium bromide.
# In vitro ResT activity was assayed in the presence of peptide inhibitors provided by Dr. Anca Segall, San Diego State University. These peptides were previously characterized as inhibitors of tyrosine recombinase or topoisomerase activity (Cassell et al., 2000; Klemm et al., 2000). […] The results also raise the possibility for further development of peptide inhibitors of ResT for therapeutic and/or environmental agents to inhibit growth of Borrelia species.
# [1] = target: B. burgdorferi strain (NGR) carrying a triple mutation in the gyrB gene; test: Growth of B. burgdorferi strain (NGR) carrying coumarin-resistant gyrase in culture; type: cell-based, Borrelia burgdorferi; conditions: read-out: IC50, inhibition of growth of B. burgdorferi carrying the resistant gyrase
# Protocol: To determine whether coumermycin Al and novobiocin could block growth of B. burgdorferi in culture, a B. burgdorferi strain (NGR) carrying a triple mutation in the gyrB gene (Knight et al., 2000; Rosa et al., 1996) was used (provided by Dr. D. Scott Samuels, University of Montana, Missoula). The triple mutation in the gyrase B subunit renders the mutant DNA gyrase resistant to coumermycin A1 and novobiocin. B. burgdorferi carrying the resistant gyrase was grown in the absence, or in the presence of increasing amounts of coumermycin A1 or novobiocin. […] The drug concentrations for complete inhibition of growth were almost identical to the concentrations of both drugs required for complete inhibition of ResT in vitro.
compound,measurement,setting,value
peptide #59: peptide which inhibits DNA cleavage by λ integrase (KWWCRW; Peptide #59),effect of peptide on in vitro ResT activity,ResT,mild stimulator
NCCCCNCCCN [spermidine],stimulation of the in vitro telomere resolution reaction,ResT; 5 mM spermidine in 1× reaction,~3 fold
CCn1cc(C(=O)O)c(=O)c2ccc(C)nc21 [nalidixic acid],inhibition of ResT,ResT,did not inhibit
coumermycin A1,IC50,"[1]; gyrB triple mutant strain NGR, FIG. 8B",75 µM
same,concentration at which complete inhibition of ResT activity was observed,ResT,150 µM
CC[C@@]1(O)C(=O)OCc2c1cc1n(c2=O)Cc2cc3ccccc3nc2-1 [camptothecin],inhibition of ResT,ResT,did not inhibit
Peptide #52: peptide which traps the Holliday junction intermediate in λ recombination (WKHYNY; Peptide #52),effect of peptide on in vitro ResT activity,ResT,did not have any effect
CO[C@@H]1[C@@H](OC(N)=O)[C@@H](O)[C@H](Oc2ccc3c(O)c(NC(=O)c4ccc(O)c(CC=C(C)C)c4)c(=O)oc3c2C)OC1(C)C [novobiocin],IC50,[1]; Borreliella burgdorferi,255 µM
same,concentration at which complete inhibition of ResT activity was observed,ResT,1000 µM
